Reference: US20230406843A1, “Progranulin Modulators and Methods of Using the Same” (ARKUDA THERAPEUTICS, priority 2020, published 2023)
pEC50: −log10 of the molar value.

system: progranulin; assay: Progranulin induction cellular assay (ELISA of secreted mouse PGRN); format: cell-based; settings: progranulin induction assay; mouse pMG, primary cortical neurons and BV-2 cell lines named, cell type not given; ELISA-based readout; read-out: EC50
Summary of the method: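 Secreted mouse PGRN in culture medium is measured by ELISA. Cells tested are BV-2, primary cortical neurons and primary microglia. BV-2 cells are plated a day ahead, allowed 1 h to attach, then incubated 16 h.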

Compound | pEC50
N[C@@H]1CC[C@@H](C(=O)N2CCc3ccccc3[C@@H]2c2ccc(F)cc2)OC1 [Compound 5015, ((2S,5R)-5-aminotetrahydro-2H-pyran-2-yl)((S)-1-(4-fluorophenyl)-3,4-dihydroisoquinolin-2(1H)-yl)methanone] | 7.05
N[C@H]1CC[C@H](C(=O)N2CCc3ccccc3[C@@H]2c2ccc(F)cc2)OC1 [Compound 5042, ((2R,5S)-5-aminotetrahydro-2H-pyran-2-yl)((S)-1-(4-fluorophenyl)-3,4-dihydroisoquinolin-2(1H)-yl)methanone] | 7.10
CCN1CCN[C@H]2C[C@H](C(=O)N3CCc4ccccc4[C@@H]3c3ccc(F)cc3)OC[C@@H]21 [Compound 5599] | 9.00
CCCN1CCN[C@H]2C[C@H](C(=O)N3CCc4ccccc4[C@@H]3c3ccc(F)cc3)OC[C@@H]21 [Compound 5600] | 7.68
COCCN1CCN[C@H]2C[C@H](C(=O)N3CCc4ccccc4[C@@H]3c3ccc(F)cc3)OC[C@@H]21 [Compound 5601] | 7.74
CC(C)(C)N1CCN[C@H]2C[C@H](C(=O)N3CCc4ccccc4[C@@H]3c3ccc(F)cc3)OC[C@@H]21 [Compound 5603] | 8.10

Other lines, results leading:

pEC50 | Compound
7.52 | C=CCN[C@H]1C[C@H](C(=O)N2CCc3ccccc3[C@@H]2c2ccc(F)cc2)OC[C@@H]1OC [Compound 5578]
7.30 | CCCN[C@H]1C[C@H](C(=O)N2CCc3ccccc3[C@@H]2c2ccc(F)cc2)OC[C@@H]1OC [Compound 5579]
6.66 | CN[C@H]1C[C@H](C(=O)N2CCc3ccccc3[C@@H]2c2ccc(F)cc2)OC[C@@H]1O [Compound 5586]
6.71 | CCN[C@H]1C[C@H](C(=O)N2CCc3ccccc3[C@@H]2c2ccc(F)cc2)OC[C@@H]1O [Compound 5587]

system: progranulin; assay: In vivo progranulin secretion assay after oral administration; settings: oral administration at 5 mg/kg; progranulin secretion post dose relative to the control
Protocol: In vivo Assays: Progranulin can be detected in tissue sample or biofluids including blood, plasma, brain, liver and cerebrospinal fluid (CSF) from different non-human animals including rat, mouse, dog, and cynomolgus monkeys. Progranulin concentration can be detected using one or more methods including an enzyme-linked immunosorbent assay (ELISA). Non-human animals including rat, mouse, dog, and cynomolgus monkeys are administered a compound as disclosed herein by one of several routes of administration including oral, subcutaneous, and intravenous routes of administration. Samples of tissue or biofluids are collected at specific times before and following compound administration. The amount of progranulin in a specific sample collected after compound administration is compared to the amount of progranulin detected in a sample of the same tissue or biofluid obtained prior to compound administration. […] Test compounds can be administered one or more times. When compounds are administered more than one time, the number of doses and the intervals between doses can be adjusted to any combination. For example, a test compound can be administered a single time, a test compound can be administered 8 times at intervals of 12 hours, and a test compound can be administered 4 times at intervals of 24 hours. The ability of a compound to increase progranulin can be quantified in several ways. […]

Compound | Activity Level
N[C@@H]1CC[C@@H](C(=O)N2CCc3ccccc3[C@@H]2c2ccc(F)cc2)OC1 [Compound 5015, ((2S,5R)-5-aminotetrahydro-2H-pyran-2-yl)((S)-1-(4-fluorophenyl)-3,4-dihydroisoquinolin-2(1H)-yl)methanone] | 7 (at least about 300% (Activity level 7))
N[C@H]1CC[C@H](C(=O)N2CCc3ccccc3[C@@H]2c2ccc(F)cc2)OC1 [Compound 5042, ((2R,5S)-5-aminotetrahydro-2H-pyran-2-yl)((S)-1-(4-fluorophenyl)-3,4-dihydroisoquinolin-2(1H)-yl)methanone] | 6 (at least about 250% (Activity level 6))
